Test results: patent US10550127B1, “Indanylaminoazadihydrobenzofuranylacetic acids, pharmaceutical compositions for the treatment of diabetes” (Boehringer Ingelheim International GmbH, priority 2017, dated 2020)

Molecular target: human GPR40 receptor (Homo sapiens (Human), UniProt O14842)
Sequence (O14842 whole entry): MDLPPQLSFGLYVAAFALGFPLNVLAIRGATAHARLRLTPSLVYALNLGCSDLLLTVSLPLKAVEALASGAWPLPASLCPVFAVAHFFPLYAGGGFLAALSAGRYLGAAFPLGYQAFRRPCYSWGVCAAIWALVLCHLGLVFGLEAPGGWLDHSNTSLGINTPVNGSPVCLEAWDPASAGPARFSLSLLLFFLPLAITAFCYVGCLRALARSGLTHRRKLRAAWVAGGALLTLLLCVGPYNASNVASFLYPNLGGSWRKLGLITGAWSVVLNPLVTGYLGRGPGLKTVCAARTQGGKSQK
Assay: IP1 accumulation measurements using the IPOne assay system
Format: cell-based
Details: 1321N1 cells stably expressing human GPR40, 1 h stimulation
Protocol: IP1 accumulation measurements using the IPOne assay system—1321N1 cells stably expressing human GPR40 receptor (Euroscreen, Belgium) are seeded 24 h before the assay in white 384-well plates in culture medium containing 10% FCS, 1% Na-Pyruvate and 400 μg/mL G418. IP1 is assayed according to the manufacturer's description (Cisbio Bioassays, France). In brief, the assay is started by substitution of the culture medium by stimulation buffer (Hepes 10 mM, CaCl2) 1 mM, MgCl2 0.5 mM, KCl 4.2 mM, NaCl 146 mM, glucose 5.5 mM and LiCl 50 mM, pH 7.4). Cells are stimulated for 1 h at 37° C., 5% CO2 by addition of the compounds that are diluted in stimulation buffer containing LiCl. Assays are stopped by adding HTRF-conjugates (IP1-d2 and Anti-IP1 cryptate Tb) and lysis buffer, provided by the manufacturer. After an incubation time of 1 h at room temperature plates are measured using an EnVision™, Perkin Elmer. The obtained fluorescence ratios at 665/615 […] are then used to calculate the pEC50 values using Assay Explorer 3.3 Software (Accelrys, Inc.) by interpolation using an IP1 reference curve and subsequent sigmoidal curve fitting allowing for a variable hill slope.
In the case of `Cc1cc(OCCC(C)(C)O)cc(C)c1-c1ccc(F)c2c1CC[C@H]2Nc1cc2c(cn1)[C@@H](CC(=O)O)CO2` [Example 2, ((R)-6-{(R)-7-Fluoro-4-[4-(3-hydroxy-3-methyl-butoxy)-2,6-dimethyl-phenyl]-indan-1-ylamino}-2,3-dihydro-furo[3,2-c]pyridin-3-yl)-acetic Acid], the EC50 is reported as 0.764 µM.
`Cc1cc(OCCC(C)(C)O)cc(C)c1-c1cccc2c1CC[C@H]2Nc1cc2c(cn1)[C@H](CC(=O)O)CO2` [Example 3, ((S)-6-{(R)-4-[4-(3-Hydroxy-3-methyl-butoxy)-2,6-dimethyl-phenyl]-indan-1-ylamino}-2,3-dihydro-furo[3,2-c]pyridin-3-yl)-acetic Acid] gave an EC50 of 0.021 µM.
With `Cc1cc(OCCC(C)(C)O)cc(C)c1-c1cccc2c1CC[C@H]2Nc1cc2c(cn1)[C@@H](CC(=O)O)CO2` [Example 4, ((R)-6-{(R)-4-[4-(3-Hydroxy-3-methyl-butoxy)-2,6-dimethyl-phenyl]-indan-1-ylamino}-2,3-dihydro-furo[3,2-c]pyridin-3-yl)-acetic acid] the EC50 was 0.751 µM.
In the case of `Cc1cc(-c2nnn(C)n2)cc(C)c1-c1ccc(F)c2c1CC[C@H]2Nc1cc2c(cn1)[C@@H](CC(=O)O)CO2` [Example 6, ((R)-6-{(R)-4-[2,6-Dimethyl-4-(2-methyl-2H-tetrazol-5-yl)-phenyl]-7-fluoro-indan-1-ylamino}-2,3-dihydro-furo[3,2-c]pyridin-3-yl)-acetic Acid], the EC50 is reported as 0.382 µM.
Work on `Cc1cc(-c2nnn(C)n2)cc(C)c1-c1cccc2c1CC[C@H]2Nc1cc2c(cn1)[C@H](CC(=O)O)CO2` [Example 7, ((S)-6-{(R)-4-[2,6-Dimethyl-4-(2-methyl-2H-tetrazol-5-yl)-phenyl]-indan-1-ylamino}-2,3-dihydro-furo[3,2-c]pyridin-3-yl)-acetic Acid] yielded an EC50 of 0.007 µM.
Compound `Cc1cc(-c2nnn(C)n2)cc(C)c1-c1cccc2c1CC[C@H]2Nc1cc2c(cn1)[C@@H](CC(=O)O)CO2` [Example 8, ((R)-6-{(R)-4-[2,6-Dimethyl-4-(2-methyl-2H-tetrazol-5-yl)-phenyl]-indan-1-ylamino}-2,3-dihydro-furo[3,2-c]pyridin-3-yl)-acetic acid] has an EC50 of 0.378 µM.
`Cc1cc(O[C@@H]2CCOC2)cc(C)c1-c1ccc(F)c2c1CC[C@H]2Nc1cc2c(cn1)[C@H](CC(=O)O)CO2` [Example 9, [(S)-6-((R)-4-{2,6-Dimethyl-4-[(R)-(tetrahydro-furan-3-yl)oxy]-phenyl}-7-fluoro-indan-1-ylamino)-2,3-dihydro-furo[3,2-c]pyridin-3-yl]-acetic Acid] showed an EC50 of 0.057 µM.
With `Cc1cc(OC2CCOCC2)cc(C)c1-c1ccc(F)c2c1CC[C@H]2Nc1cc2c(cn1)[C@H](CC(=O)O)CO2` [Example 10, ((S)-6-{(R)-4-[2,6-Dimethyl-4-(tetrahydro-pyran-4-yloxy)-phenyl]-7-fluoro-indan-1-ylamino}-2,3-dihydro-furo[3,2-c]pyridin-3-yl)-acetic Acid] the EC50 was 0.056 µM.
Compound `Cc1cc(OCC2(C)COC2)cc(C)c1-c1ccc(F)c2c1CC[C@H]2Nc1cc2c(cn1)[C@H](CC(=O)O)CO2` [Example 11, ((S)-6-{(R)-4-[2,6-Dimethyl-4-(3-methyl-oxetan-3-ylmethoxy)-phenyl]-7-fluoro-indan-1-ylamino}-2,3-dihydro-furo[3,2-c]pyridin-3-yl)-acetic Acid] has an EC50 of 0.037 µM.
With `Cc1cc(O[C@H]2CCOC2)cc(C)c1-c1ccc(F)c2c1CC[C@H]2Nc1cc2c(cn1)[C@H](CC(=O)O)CO2` [Example 12, [(S)-6-((R)-4-{2,6-Dimethyl-4-[(S)-(tetrahydro-furan-3-yl)oxy]-phenyl}-7-fluoro-indan-1-ylamino)-2,3-dihydro-furo[3,2-c]pyridin-3-yl]-acetic Acid] the EC50 was 0.073 µM.
In the case of `Cc1cc(OCC(C)(C)O)cc(C)c1-c1ccc(F)c2c1CC[C@H]2Nc1cc2c(cn1)[C@H](CC(=O)O)CO2` [Example 13, ((S)-6-{(R)-7-Fluoro-4-[4-(2-hydroxo-2-methyl-propoxy)-2,6-dimethyl-phenyl]-indan-1-ylamino}-2,3-dihydro-furo[3,2-c]pyridin-3-yl)-acetic Acid], the EC50 is reported as 0.035 µM.
Compound `Cc1cc(OCC2CCOC2)cc(C)c1-c1ccc(F)c2c1CC[C@H]2Nc1cc2c(cn1)[C@H](CC(=O)O)CO2` (stereo partly drawn) [Example 14, ((S)-6-{(R)-4-[2,6-Dimethyl-4-(tetrahydro-furan-3-ylmethoxy)-phenyl]-7-fluoro-indan-1-ylamino}-2,3-dihydro-furo[3,2-c]pyridin-3-yl)-acetic Acid] has an EC50 of 0.027 µM.
Compound `Cc1cc(-c2nnn(CC(C)(C)O)n2)cc(C)c1-c1ccc(F)c2c1CC[C@H]2Nc1cc2c(cn1)[C@H](CC(=O)O)CO2` [Example 15, [(S)-6-((R)-7-Fluoro-4-{4-[2-(2-hydroxo-2-methyl-propyl)-2H-tetrazol-5-yl]-2,6-dimethyl-phenyl}-indan-1-ylamino)-2,3-dihydro-furo[3,2-c]pyridin-3-yl]-acetic acid] has an EC50 of 0.009 µM.
With `Cc1cc(-c2ccn(C)c(=O)n2)cc(C)c1-c1ccc(F)c2c1CC[C@H]2Nc1cc2c(cn1)[C@H](CC(=O)O)CO2` [Example 16, ((S)-6-{(R)-4-[2,6-Dimethyl-4-(1-methyl-2-oxo-1,2-dihydro-pyrimidin-4-yl)-phenyl]-7-fluoro-indan-1-ylamino}-2,3-dihydro-furo[3,2-c]pyridin-3-yl)-acetic acid] the EC50 was 0.027 µM.
Compound `Cc1cc(-c2ccn(C)c(=O)c2)cc(C)c1-c1ccc(F)c2c1CC[C@H]2Nc1cc2c(cn1)[C@H](CC(=O)O)CO2` [Example 17, ((S)-6-{(R)-4-[2,6-Dimethyl-4-(1-methyl-2-oxo-1,2-dihydro-pyridin-4-yl)-phenyl]-7-fluoro-indan-1-ylamino}-2,3-dihydro-furo[3,2-c]pyridin-3-yl)-acetic Acid] has an EC50 of 0.012 µM.
Work on `Cc1cc(-c2cc(=O)n(C)cn2)cc(C)c1-c1ccc(F)c2c1CC[C@H]2Nc1cc2c(cn1)[C@H](CC(=O)O)CO2` [Example 18, ((S)-6-{(R)-4-[2,6-Dimethyl-4-(1-methyl-6-oxo-1,6-dihydro-pyrimidin-4-yl)-phenyl]-7-fluoro-indan-1-ylamino}-2,3-dihydro-furo[3,2-c]pyridin-3-yl)-acetic Acid] yielded an EC50 of 0.014 µM.
`Cc1cc(-c2ccc(=O)n(C)c2)cc(C)c1-c1ccc(F)c2c1CC[C@H]2Nc1cc2c(cn1)[C@H](CC(=O)O)CO2` [Example 19, ((S)-6-{(R)-4-[2,6-Dimethyl-4-(1-methyl-6-oxo-1,6-dihydro-pyridin-3-yl)-phenyl]-7-fluoro-indan-1-ylamino}-2,3-dihydro-furo[3,2-c]pyridin-3-yl)-acetic Acid] gave an EC50 of 0.027 µM.
For `Cc1cc(-c2cnccn2)cc(C)c1-c1ccc(F)c2c1CC[C@H]2Nc1cc2c(cn1)[C@H](CC(=O)O)CO2` [Example 20, {(S)-6-[(R)-4-(2,6-Dimethyl-4-pyrazin-2-yl-phenyl)-7-fluoro-indan-1-ylamino]-2,3-dihydro-furo[3,2-c]pyridin-3-yl}-acetic acid], the EC50 was 0.009 µM.

System: not listed separately
Assay: Aqueous solubility
Format: physicochemical
Details: aqueous buffer, kinetic from dmso stock, buffer pH 2.2, 24 h shaking, 2.5% DMSO
Protocol: The aqueous solubility of the compounds of the invention is determined by comparing the amount dissolved in buffer to the amount in an acetonitrile/water (1/1) solution. Starting from a 10 mM DMSO stock solution aliquots are diluted with acetonitrile/water (1/1) or buffer, respectively. After 24 h of shaking, the solutions are filtrated and analyzed by LC-UV. The amount dissolved in buffer is compared to the amount in the acetonitrile solution.
Solubility is usually being measured from 0.001 to 0.125 mg/mL at a DMSO concentration of 2.5%. If more than 90% of the compound is dissolved in buffer, the value is marked with “>”.
Work on `Cc1cc(OCCC(C)(C)O)cc(C)c1-c1ccc(F)c2c1CC[C@H]2Oc1ccc2c(c1)OC[C@H]2CC(=O)O` [Example 16 in WO 2013/144098, reference compound] yielded a solubility at 24 h of less than 1 µg/mL.
`Cc1cc(-c2nnn(C)n2)cc(C)c1-c1ccc(F)c2c1CC[C@H]2Oc1ccc2c(c1)OC[C@H]2CC(=O)O` [Example 138 in WO 2013/144098, reference compound] showed a solubility at 24 h of less than 1 µg/mL.

Molecular target: cytochrome P450 2C8-isoenzyme (Homo sapiens (Human), UniProt P10632)
Sequence (P10632 whole entry): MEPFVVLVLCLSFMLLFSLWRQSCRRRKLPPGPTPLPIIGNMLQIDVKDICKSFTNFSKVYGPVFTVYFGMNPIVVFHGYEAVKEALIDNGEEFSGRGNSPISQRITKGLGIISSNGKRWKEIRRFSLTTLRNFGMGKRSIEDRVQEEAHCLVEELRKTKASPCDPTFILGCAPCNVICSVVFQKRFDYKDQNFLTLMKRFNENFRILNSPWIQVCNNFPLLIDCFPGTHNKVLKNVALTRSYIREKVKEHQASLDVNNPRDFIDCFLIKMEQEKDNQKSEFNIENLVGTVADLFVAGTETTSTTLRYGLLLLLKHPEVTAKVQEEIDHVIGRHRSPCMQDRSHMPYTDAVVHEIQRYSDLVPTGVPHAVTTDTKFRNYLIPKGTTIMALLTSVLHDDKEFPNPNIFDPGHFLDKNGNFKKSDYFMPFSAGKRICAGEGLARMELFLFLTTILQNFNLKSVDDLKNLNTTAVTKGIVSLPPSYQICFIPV
Assay: Inhibition of CYP-2C8 (amodiaquine deethylation, human liver microsomes)
Format: in vitro ADME
Details: amodiaquine 1 μM, 37° C.
Protocol: All assays are carried out on a robotic system in 96 well plates. The final incubation volume contains TRIS buffer (0.1 M), MgCl2 (5 mM), human liver microsomes (0.05 mg/mL), amodiaquine (1 μM) and the test compound at five different concentrations or no compound (high control) in duplicate (e.g. highest concentration 10-50 μM with subsequent serial 1:4 dilutions). Following a short preincubation period, reactions are started with the cofactor (NADPH, 1 mM) and stopped by cooling the incubation down to 8° C. and subsequently by addition of one volume of acetonitrile. An internal standard solution—the stable isotope d5-desethylamodiaquine—is added after quenching of incubations. Peak area analyte (=metabolite formed) and internal standard is determined by LC-MS/MS. The resulting peak area ratio analyte to internal standard in these incubations is compared to a control activity containing no test compound. Within each of the assay runs, the IC50 of a positive control inhibitor (Montelukast) is determined. Experimental IC50 values are calculated by least square regression according to the following equation: % control activity=(100% control activity/(1+(I/IC50)S))−B with I=inhibitor concentration; S=slope factor; B=background activity (lower plateau of the inhibition curve)
If the inhibition of the reaction is already >50% at the lowest concentration of the test compound, the IC50 is assigned “<lowest concentration tested” (usually <0.4 μM). If the inhibition of the reaction is still <50% at the highest concentration of the test compound, the IC50 is assigned “> highest concentration tested” (usually >50 μM).
Work on `Cc1cc(OCCC(C)(C)O)cc(C)c1-c1ccc(F)c2c1CC[C@H]2Oc1ccc2c(c1)OC[C@H]2CC(=O)O` [Example 16 in WO 2013/144098, reference compound] yielded an IC50 of 5 µM.
